From patent publication US20080207532A1, “Use of Nordihydroguaiaretic Acid Derivatives in the Treatment of Drug Resistant Cancer, Viral and Microbial Infection” (Johns Hopkins University, priority 2004, published 2008)
Where two headings read alike, the source gives them in different places.

Columns and labels:
NCI/ADR-RES cells = assay: SRB cytotoxicity assay with median-effect / combination index analysis; type: cell-based, human; conditions: for IC50: Homo sapiens
Experimental: The multidrug resistant cell line, NCI/ADR-RES, was obtained from the DTP Human Tumor Cell Line Screen (Developmental Therapeutics Program, NCI). Both cell lines were maintained in Dulbecco's modified Eagle's medium supplemented with 10% fetal bovine serum and the antibiotics penicillin and streptomycin. […] Stocks of M4N and paclitaxel (Sigma-Aldrich, St. Louis, Mo.) were prepared in dimethyl sulfoxide (DMSO) and added to the cell culture medium so that the final concentration of DMSO was one percent. Aqueous stocks of Dox (Sigma-Aldrich) were prepared and filter sterilized before dilution into growth medium.
NCI/ADR-RES cells were seeded at a density of 2×10^4 cells per well in 24 well plates and 24 h later the growth medium was supplemented with M4N, Dox, paclitaxel or combinations of M4N with Dox or M4N with paclitaxel. MAN was used at concentrations between 1.5 and 48 μM. For the combination of MAN and Dox a constant molar ratio of 2.4:1 (M4N:Dox) was used and for M4N and paclitaxel the ratio was 20:1 (M4N:paclitaxel). Three days after drug addition cytoxicity was assessed with the SRB assay (14) with 540 and 690 nm (reference) absorbance measured with a Power Wave 200 microplate reader (Bio-Tek Instruments, Winooski, Vt.).
The combination index (CD isobologram method of Chou and Talalay (16, 17, 18, 19) which is based on the median effect principle, was used to calculate synergism or antagonism for the combined drug effects. Dose-effect curves for each drug, singly and in combination, in serially-diluted concentrations were plotted using the median-effect equation and plot (18, 20) and the CI equation and plot (19). CI values at different effect and dose levels and isobolograms were generated automatically using the computer software CompuSyn (20). With this method, additive, synergistic or antagonistic effects are indicated by CI values of 1, <1, and >1, respectively. Comparison of the ratio of doses required to reach a given effect level for each single drug and the drugs in combination was used to determine the dose-reduction index (DRI).

MCF-7 = conditions: MCF-7, drug sensitive human breast cancer cell line; read-out: reported IC50; cited from earlier work
[1] = test system: NCI/ADR-RES multidrug resistant breast cancer xenografts; assay: combination therapy against NCI/ADR-RES xenografts in nude mice; conditions: two weeks
Experimental: Nude mice bearing NCI/ADR-RES multidrug resistant breast cancer xenografts were used as a model for combination therapy to further examine synergy between M4N and paclitaxel.
T-cell deficient female nude (nu/nu) mice, 5-6 weeks of age, were purchased from Charles River Laboratories (Wilmington, Mass.) and were housed in a pathogen-free room. All experiments involving the mice were carried out in accordance with the Johns Hopkins University Animal Care and Use Committee guideline. The mice were implanted subcutaneously in both flanks with 1×10^6 NCI/ADR-RES cells suspended in Hank's balanced salt solution (HBSS). […] For intraperitoneal (i.p.) administration, M4N, maltose-M3N and paclitaxel were dissolved in a recently developed reduced cremophor solution containing 20% (v) dehydrated ethanol, 20% (v) Cremophor EL, PEG 300, <11% (v) Tween 80 (22). Daily injections of 0.05 ml were performed for each drug and drug combination.
Tumors were measured in two perpendicular dimensions once every seven days, and the tumor volumes were calculated according to the following formula: […]
where a is the width of the tumor (smaller diameter) and b is the length (larger diameter) (23). The mean tumor volume and standard error were calculated for each treatment group. Relative mean tumor volumes, (V/V0), where V is the mean tumor volume at a particular time and V0 is the mean tumor volume at day 0 (23), were determined and used to assess tumor growth inhibition (T/C value) using the following equation:
T/C(%)=Relative Mean Tumor Volume of treated/Relative Mean Volume of control×100.
The NCI standard for the minimal level for antitumor activity (T/C≦42%) was adopted (25). At the termination of the experiment the tumors were excised and fixed in formaldehyde. Tissue samples were then sent to Paragon Bioservices for histology and immunohistochemistry using antibodies against human P-glycoprotein (Pgp).
Two dosage regimens of M4N and paclitaxel, both with a constant molar ratio of 20:1 (M4N:paclitaxel), were employed as determined by in vitro testing to be synergistic as shown in Table 1. The 8 and 16 μmol m^2 doses of pactitaxel were submaximal based on values from other studies (22) and the M4N doses of 160 and 320 μmol/m^2 were arrived at by decreasing the maximum tolerated dose used in our previous study with MCF-7 breast cancer xenografts (5). An additional NDGA derivative was also tested. Maltose-M3N was developed as a water soluble alternative to M4N, however for consistency it was dissolved in the same reduced cremophor solvent system as M4N and paclitaxel for this study.

MDR-1 gene = conditions: cited from earlier work
[2] = test system: Hep3B, HT29, K562, LNCaP, and MCF7; assay: MTT cell viability of human tumor cell lines; type: cell-based; conditions: 72 h, every cell line tested (Hep3B, HT29, K562, LNCaP, MCF7), 3 days
Experimental: Human tumor cell lines were obtained from ATCC (Mannassas, Va.). The human hepatocellular carcinoma cell line, Hep3B, was maintained in Eagle's MEM supplemented with 10% FBS; the human breast cancer cell line, MCF7, was grown in DMEM containing 10% FBS; the human colorectal carcinoma cell line, HT29, was cultured in McCoy's 5a medium with 10% FBS; the human prostate carcinoma cell line, LNCaP, was maintained in RPMI 1640 with 10% FBS and human erythroleukemia cell line, K562, was propagated in Iscove's modified Dulbecco's medium (IMDM) containing 10% FBS. All of the cultures contained the antibiotics penicillin and streptomycin. The C3 cell line was generated by transfection of the EJras-transformed C57B16 (B6) mouse embryo cells with fall length HPV16. C3 cells were grown and maintained in IMDM supplemented with 5% FBS plus penicillin and streptomycin.
For cell culture experiments, Maltose-M3N was dissolved in water to a concentration of 10 mM and then sterilized by filtration. Cells were seeded at approximately 2×10^3 cells per cm^2 in complete media. Twenty-four hours after seeding, the growth media was removed and replaced with media containing the desired concentrations of Maltose-M3N.
Twenty thousand cells were seeded into each well of 24-well plates. […] The solubilized dye was transferred to 96-well plates and read at the wavelength of 540 nm using an ELISA reader.

Hep3B cells = assay: DAPI staining of nuclei for apoptotic bodies; type: cell-based, human; conditions: 60 μM, 72 hr
Experimental: FIG. 9. (A) Effect of Maltose-M3N on the proliferation of human tumor cell lines. HT29, LNCaP, Hep3B, K562, and MCF7 were treated with different concentrations of Maltose-M3N for 72 hours. Percent cell viability was measured by MTT assay and expressed as mean±SD of triplicate data points. (B) Untreated Hep3B cells or treated with 60 μM Maltose-M3N for 72 hr were stained with DAPI. Arrows indicate apoptotic bodies.
The growth inhibitory effect of Maltose-M3N was evaluated in five human cancer cell lines, including Hep3B, HT29, K562, LNCaP, and MCF7.

C3 tumors = assay: intratumoral treatment of C3 cell-induced tumors in mice; type: in vivo; conditions: daily intratumoral injections for 4 days
Experimental: Four C57b1/6 mice were inoculated with 5×10^5 C3 cells subcutaneously between the shoulders. Tumors were allowed to develop for approximately 20 days. The mice then received daily intratumoral injections of 0.1 ml of 0.15 M NaCl, 10 mg, 20 mg or 40 mg of Maltose-M3N dissolved in 0.15 M NaCl. After 4 days of treatment, the mice were euthanized and the tumors were excised, immediately fixed and then stored in 4% formaldehyde in PBS. Tissue samples were then sent to Paragon Bioservices (Baltimore, Md.) for histology and immunohistochemistry using antibodies against Cdc2 and survivin.

solubility in water = type: physicochemical
[3] = 72 h, NCI/ADR-RES, three days, combinations at molar ratio 2.4:1 (M4N:Dox) or 20:1 (M4N:paclitaxel), given as M4N + second drug, read-out: Dm, median effect dose (concentration that inhibits cell growth by 50%)
[4] = single agent, NCI/ADR-RES, read-out: IC50
[5] = M4N/Dox combination 2.4:1, NCI/ADR-RES
[6] = M4N/Dox combination, NCI/ADR-RES
[7] = M4N/paclitaxel combination 20:1, NCI/ADR-RES
[8] = M4N/paclitaxel combination, NCI/ADR-RES
[9] = higher regimen: M4N or Mal-M3N 320, Px 16 μmoles/m^2, i.p. daily
[10] = lower regimen: M4N 160, Px 8 μmoles/m^2, i.p. daily

COc1cccc2c1C(=O)c1c(O)c3c(c(O)c1C2=O)C[C@@](O)(C(=O)CO)C[C@@H]3O[C@H]1C[C@H](N)[C@H](O)[C@H](C)O1 [Dox, doxorubicin]
concentration necessary to inhibit the growth of 75% of cells (ED75) (NCI/ADR-RES cells; Dox alone, NCI/ADR-RES): 30.5 µM
concentration necessary to inhibit the growth of 75% of cells (ED75) (NCI/ADR-RES cells; Dox with concurrent 11.3 μM M4N, NCI/ADR-RES): 4.7 µM
IC50 (NCI/ADR-RES cells; [3]): 3.22 µM
IC50 (NCI/ADR-RES cells; [4]): 3.22 µM
DRI value at ED75 (NCI/ADR-RES cells; [5]): 6.47
DRI value at ED90 (NCI/ADR-RES cells; [5]): 30.50
DRI value at ED95 (NCI/ADR-RES cells; [5]): 87.56
decrease of ED75 by concurrent M4N (DRI) (NCI/ADR-RES cells; [6]): 6.47 fold
reduction of ED95 by concurrent M4N (DRI) (NCI/ADR-RES cells; [6]): 87.6 fold
IC50 (MCF-7): 0.13 µM

CC(=O)O[C@H]1C(=O)[C@@]2(C)[C@H]([C@H](OC(=O)c3ccccc3)[C@]3(O)C[C@H](OC(=O)[C@H](O)[C@@H](NC(=O)c4ccccc4)c4ccccc4)C(C)=C1C3(C)C)[C@]1(OC(C)=O)CO[C@@H]1C[C@@H]2O [paclitaxel]
IC50 (NCI/ADR-RES cells; [3]): 3.26 µM
IC50 (NCI/ADR-RES cells; [4]): 3.26 µM
DRI value at ED75 (NCI/ADR-RES cells; [7]): 54.32
DRI value at ED90 (NCI/ADR-RES cells; [7]): 150.31
DRI value at ED95 (NCI/ADR-RES cells; [7]): 300.34
decrease of ED50 by concurrent M4N (DRI) (NCI/ADR-RES cells; [8]): 19.63 fold
decrease of ED95 by concurrent M4N (DRI) (NCI/ADR-RES cells; [8]): 300.3 fold
Deaths [1, 9]: 0/7
Relative Mean Tumor Volume [1, 9]: 1.59
T/C % [1, 9]: 60.7%
Deaths [1, 10]: 0/7
Mean Body Weight Change [1, 10]: +0.3 g/mouse
Relative Mean Tumor Volume [1, 10]: 0.90
T/C % [1, 10]: 34.4%
IC50 (MCF-7): 0.0064 µM

COc1cc2c(cc1O)CCN[C@]21CS[C@@H]2c3c(OC(C)=O)c(C)c4c(c3[C@H](COC1=O)N1[C@@H]2[C@H]2c3c(cc(C)c(OC)c3O)C[C@@H]([C@@H]1O)N2C)OCO4 [ET-743]
MDR-1 gene activation (MDR-1 gene): able to inhibit MDR-1 gene activation

COc1ccc(C[C@H](C)[C@H](C)Cc2ccc(OC)c(OC3OC(CO)C(OC4OC(CO)C(O)C(O)C4O)C(O)C3O)c2)cc1OC (stereo partly shown) [Maltose-M3N]
IC50 [2]: 20 to 40 µM
mode of cell death (DAPI staining) (Hep3B cells): cell death occurred via apoptosis
Cdc2 protein expression in tumors (C3 tumors): reduced expression levels
apoptosis and necrosis by H&E staining (C3 tumors): elevated levels of apoptosis and necrosis
survivin protein expression in tumors (C3 tumors): reduced expression levels
Relative Mean Tumor Volume [1, 9]: 1.25
T/C % [1, 9]: 47.7%
solubility in aqueous solution (solubility in water): water soluble
